# Earlier results in US20070082912A1, “Pyrrole compounds for the treatment of prostaglandine mediated diseases” (priority 2002, published 2007).
# Assays:
# [1] = tested on: rodent model of post-operative pain; settings: Anesthesia and Analgesia 2001, 92, 233-238
# [2] = tested on: rat model of chronic constriction injury; settings: Anesthesia and Analgesia 2001, 93, 1012-7
smiles,measurement,setting,value
Cc1cc(Cl)ccc1S(=O)(=O)NC[C@H]1C2CCC(CC2)[C@@H]1/C=C\CCCC(=O)O [ONO-871 1],mechanical hyperalgesia,[1],inhibits mechanical hyperalgesia
same,hyperalgesia and allodynia,[2],reduces hyperalgesia and allodynia
